According to patent US7803803B2, “Tetrahydrofuro[3,2-B] pyrrol-3-ones as cathepsin K inhibitors” (Amura Therapeutics Limited, priority 2007, dated 2010):
Like-named read-outs stand apart in the source and are kept apart here.

Experiments:
cathepsin K = target: T1, cathepsin K (Homo sapiens, UniProt P43235); assay: In vitro cathepsin Ki inhibition measurements; assay type: biochemical; set-up: purchased B. Turk, Josef Stefan Institute, Ljubljana, Slovenia
T1 sequence (P43235 115-329): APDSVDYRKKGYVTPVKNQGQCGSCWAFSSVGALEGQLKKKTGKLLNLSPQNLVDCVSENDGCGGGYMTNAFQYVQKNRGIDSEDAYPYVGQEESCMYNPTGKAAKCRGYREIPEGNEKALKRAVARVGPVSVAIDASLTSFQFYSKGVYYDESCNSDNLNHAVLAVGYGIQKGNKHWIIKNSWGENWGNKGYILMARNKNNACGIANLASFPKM
Protocol: Stock solutions of substrate or inhibitor were made up to 10 mM in 100% dimethylsulfoxide (DMSO) (Rathburns, Glasgow, U.K.) and diluted as appropriately required. In all cases the DMSO concentration in the assays was maintained at less than 1% (vol./vol.). The equilibrium inhibition constants (Ki^SS) for each compound were measured under steady-state conditions monitoring enzyme activity as a function of inhibitor concentration. The values were calculated on the assumption of pure competitive behaviour (Cornish-Bowden, A. Fundamentals of enzyme kinetics Portland Press; 1995, 93-128). Human recombinant cathepsin K (0.25 nM final; B. Turk, Josef, Stefan Institute, Ljubljana, Slovenia), was routinely assayed in 100 mM sodium acetate; pH 5.5 containing 1 mM EDTA, 10 mM L-cysteine and 1.8 μM Z-Leu-Arg-AMC ([S]═KM).
The apparent inhibition constant (Ki) for each compound was determined on the basis that inhibition was reversible and occurred by a pure-competitive mechanism. The Ki values were calculated, from the dependence of enzyme activity as a function of inhibitor concentration, by direct regression analysis (Prism v 3.02) using Equation 2 (Cornish-Bowden, A., 1995).
In situations where the apparent dissociation constant (Ki^app) approached the enzyme concentrations, the Ki^app values were calculated using a quadratic solution in the form described by Equation 3 (Morrison, J. F. Trends Biochem. Sci., 7, 102-105, 1982; Morrison, J. F. Biochim. Biophys. Acta, 185, 269-286, 1969; Stone, S. R. and Hofsteenge, J. Biochemistry, 25, 4622-4628, 1986).
Curves were fitted by non-linear regression analysis (Prism) using a fixed value for the enzyme concentration. Equation 4 was used to account for the substrate kinetics, where ‘Ki’ is the inhibition constant, ‘[So]’ is the initial substrate concentration and ‘KM^app’ is the apparent macroscopic binding (Michaelis) constant for the substrate (Morrison, 1982).

[1] = Plasma incubations (human plasma stability); assay type: in vitro ADME; conditions: 37° C. Further: tested at 25 µM.
Protocol: Aliquots were removed at 2 and 60 minutes and quenched with an equal volume of cold acetonitrile. After mixing vigorously, the precipitated protein matter was removed by filtration (Multiscreen Solvinert filter plates, Millipore, Bedford, Mass., USA) and the filtrate analysed by reverse phase HPLC with mass spectrometric detection, using single ion monitoring of the [M+H]^+ species. Metabolic turnover was determined by comparison of peak areas from the ion chromatograms of the parent compound at 2 and 60 minutes and expressed as percent remaining at 1 hour.

LogD determinations = assay type: physicochemical; conditions: Ion-count method; for logD at 1 h: 1-octanol/phosphate buffered saline, pH 7.4, pH 7.4
Protocol: LogD(PBS) determinations were performed in 96 well microtitre plates using a miniaturised “shake-flask” method. […] The plates were then capped and mixed vigorously for 1 hour on a microtitre plate shaker, after which they were left to stand, allowing the PBS and octanol phases to separate. The PBS layer was analysed by reverse phase HPLC with mass spectrometric detection, using single ion monitoring of the [M+H]^+ species.
Where AUCstd and AUCpbs are the peak areas from the standard and test ion chromatograms respectively.

human osteoclasts = assay: Human osteoclast resorption assay; assay type: cell-based; conditions: Homo sapiens, Osteoclast, 48 h, 1 □ M, read-out: Cell-based % Inh. @ 1 □ M Human
Protocol: Bone resorption was studied using a model where human osteoclast precursor cells were cultured on bovine bone slices for 9 days and allowed to differentiate into bone-resorbing osteoclasts. The formed mature osteoclasts were then allowed to resorb bone. The assay was performed by Pharmatest Services Ltd, Itäinen Pitkakatu 4C, Turku, Finland. After the culture period, bone collagen degradation products were quantified from the culture medium as an index of bone resorption. Inhibitor compounds were added into the cell cultures after the differentiation period and their effects on the resorbing activity of mature osteoclasts were determined. The studies included a baseline group without added compounds and a positive control group where a potent cathepsin K inhibitor E-64 was added.
Human peripheral blood monocytes were suspended to culture medium and allowed to attach to bovine bone slices. The bone slices were transferred into 96-well tissue culture plates containing culture medium with appropriate amounts of important growth factors favouring osteoclast differentiation, including M-CSF, RANK-ligand and TGF-[…]. The cells were incubated in a CO2 incubator in humidified atmosphere of 95% air and 5% carbon dioxide at 37° C. At day 7 when osteoclast differentiation was complete, the culture medium was replaced with culture medium containing conditions favouring osteoclast activity. The cell culture was continued for an additional 2 days, during which the formed mature osteoclasts were allowed to resorb bone in the presence of vehicle, control inhibitor (E64) or test compounds. At the end of the culture, bone collagen degradation products released into the culture medium were determined using a commercially available ELISA method (CrossLaps® for culture, Nordic Bioscience, Herlev, Denmark) as an index of bone resorption (see Bagger, Y. Z. et al, J. Bone. Miner. Res. 14 (suppl. 1), S370).

[2] = prior art examples of WO-A-02057270, recombinant human cathepsin K, read-out: Ki (nM) vs Human Cathepsin K
[3] = human recombinant cathepsin K, read-out: In vitro Ki (nM) vs Cath K

Row | Compound | Ki (cathepsin K; [2]) [nM] | Human Plasma Stability % rem. @ 1 h [1] [%] | LogD pH 7.4 (LogD determinations) | Ki (cathepsin K; [3]) [nM] | also measured
1 | N—((S)-1-((3aS,6S,6aS)-6-methoxy-3-oxodihydro-2H-furo[3,2-b]pyrrol-4(5H,6H,6aH)-yl)-4,4-dimethyl-1-oxopentan-2-yl)-4-(4-methylpiperazin-1-yl)benzamide [Example 2] | > 50000 |  |  |  | 
2 | CCCN1CCN(c2ccc(C(=O)N[C@@H](CC(C)(C)C)C(=O)N3C[C@H](OC)[C@H]4OCC(=O)[C@H]43)cc2)CC1 [Example 14, N—((S)-1-((3aS,6S,6aS)-6-methoxy-3-oxodihydro-2H-furo[3,2-b]pyrrol-4(5H,6H,6aH)-yl)-4,4-dimethyl-1-oxopentan-2-yl)-4-(4-propylpiperazin-1-yl)benzamide] |  | 98 | 1.74 | 8.6 | 
3 | N—((S)-1-((3aS,6R,6aR)-6-amino-3-oxodihydro-2H-furo[3,2-b]pyrrol-4(5H,6H,6aH)-yl)-4-methyl-1-oxopentan-2-yl)-4-(4-(2-methoxyethyl)piperazin-1-yl)benzamide [Example 24] | > 2000 |  |  |  | 
4 | N—((S)-1-((3aS,6S,6aS)-6-methoxy-3-oxodihydro-2H-furo[3,2-b]pyrrol-4(5H,6H,6aH)-yl)-4-methyl-1-oxopentan-2-yl)-4-(4-(2-methoxyethyl)piperazin-1-yl)benzamide [Example 27] | > 20000 |  |  |  | 
5 | N—((S)-1-((3aS,6R,6aS)-6-methoxy-3-oxodihydro-2H-furo[3,2-b]pyrrol-4(5H,6H,6aH)-yl)-4,4-dimethyl-1-oxopentan-2-yl)-4-(4-methylpiperazin-1-yl)benzamide [Example 4] | > 100000 |  |  |  | 
6 | N—((S)-1-((3aS,6R,6aS)-6-hydroxy-3-oxodihydro-2H-furo[3,2-b]pyrrol-4(5H,6H,6aH)-yl)-4-methyl-1-oxopentan-2-yl)-4-(4-(2-methoxyethyl)piperazin-1-yl)benzamide [Example 26] | > 8000 |  |  |  | 
7 | N—((S)-1-((3aS,6S,6aS)-6-methoxy-3-oxodihydro-2H-furo[3,2-b]pyrrol-4(5H,6H,6aH)-yl)-4-methyl-1-oxopentan-2-yl)-4-(4-methylpiperazin-1-yl)benzamide [Example 1] | > 20000 |  |  |  | 
8 | 4-(4-ethylpiperazin-1-yl)-N—((S)-1-((3aS,6S,6aS)-6-methoxy-3-oxodihydro-2H-furo[3,2-b]pyrrol-4(5H,6H,6aH)-yl)-4,4dimethyl-1-oxopentan-2-yl)benzamide [Example 6] | > 20000 |  |  |  | 

Further lines, with some results ahead:

Row | Ki (cathepsin K; [2]) [nM] | Human Plasma Stability % rem. @ 1 h [1] [%] | LogD pH 7.4 (LogD determinations) | Ki (cathepsin K; [3]) [nM] | Compound | also measured
9 |  | 87 | 0.42 | 15.1 | CO[C@@H]1CN(C(=O)[C@H](CC(C)C)NC(=O)c2ccc(N3CCN(C)CC3)cc2)[C@@H]2C(=O)CO[C@@H]21 [Example 3, N—((S)-1-((3aS,6R,6aS)-6-methoxy-3-oxodihydro-2H-furo[3,2-b]pyrrol-4(5H,6H,6aH)-yl)-4-methyl-1-oxopentan-2-yl)-4-(4-methylpiperazin-1-yl)benzamide] | 
10 | > 100000 |  |  |  | 4-(4-ethylpiperazin-1-yl)-N—((S)-1-((3aS,6S,6aS)-6-methoxy-3-oxodihydro-2H-furo[3,2-b]pyrrol-4(5H,6H,6aH)-yl)-4-methyl-1-oxopentan-2-yl)benzamide [Example 5] | 
11 | > 15000 |  |  |  | 4-(4-ethylpiperazin-1-yl)-N—((S)-1-((3aS,6R,6aS)-6-methoxy-3-oxodihydro-2H-furo[3,2-b]pyrrol-4(5H,6H,6aH)-yl)-4-methyl-1-oxopentan-2-yl)benzamide [Example 7] | 
12 |  | 89 | 0.84 | 5.6 | CO[C@@H]1CN(C(=O)[C@H](CC(C)(C)C)NC(=O)c2ccc(N3CCN(C)CC3)cc2)[C@@H]2C(=O)CO[C@@H]21 [Example 4, N—((S)-1-((3aS,6R,6aS)-6-methoxy-3-oxodihydro-2H-furo[3,2-b]pyrrol-4(5H,6H,6aH)-yl)-4,4-dimethyl-1-oxopentan-2-yl)-4-(4-methylpiperazin-1-yl)benzamide] | inhibition at 1 µM (human osteoclasts): 63 to 88%; logD at 1 h (LogD determinations): > 0.8
13 | > 3000 |  |  |  | N—((S)-1-((3aS,6S,6aR)-6-amino-3-oxodihydro-2H-furo[3,2-b]pyrrol-4(5H,6H,6aH)-yl)-4-methyl-1-oxopentan-2-yl)-4-(4-(2-methoxyethyl)piperazin-1-yl)benzamide [Example 23] | 
14 |  | 93 | 1.64 | 3.9 | CCCN1CCN(c2ccc(C(=O)N[C@@H](CC(C)C)C(=O)N3C[C@H](OC)[C@H]4OCC(=O)[C@H]43)cc2)CC1 [Example 13, N—((S)-1-((3aS,6S,6aS)-6-methoxy-3-oxodihydro-2H-furo[3,2-b]pyrrol-4(5H,6H,6aH)-yl)-4-methyl-1-oxopentan-2-yl)-4-(4-propylpiperazin-1-yl)benzamide] | 
15 | > 2500 |  |  |  | N—((S)-1-((3aS,6R,6aS)-6-methoxy-3-oxodihydro-2H-furo[3,2-b]pyrrol-4(5H,6H,6aH)-yl)-4-methyl-1-oxopentan-2-yl)-4-(4-(2-methoxyethyl)piperazin-1-yl)benzamide [Example 28] | 
16 |  | 99 | 1.12 | 8.2 | CCCN1CCC(c2ccc(C(=O)N[C@@H](CC(C)(C)C)C(=O)N3C[C@@H](OC)[C@H]4OCC(=O)[C@H]43)cc2)CC1 [Example 38, N—((S)-1-((3aS,6R,6aS)-6-methoxy-3-oxodihydro-2H-furo[3,2-b]pyrrol-4(5H,6H,6aH)-yl)-4,4-dimethyl-1-oxopentan-2-yl)-4-(1-propylpiperidin-4-yl)benzamide] | inhibition at 1 µM (human osteoclasts): 63 to 88%; logD at 1 h (LogD determinations): > 0.8
17 |  | 90.9 |  | 3.6 | CCN1CCN(c2ccc(C(=O)N[C@H](C(=O)N3C[C@H](OC)[C@H]4OCC(=O)[C@H]43)C3CCCC3)cc2)CC1 | logD at 1 h (LogD determinations): 1.59
18 | > 4000 |  |  |  | N—((S)-1-((3aS,6R,6aS)-6-methoxy-3-oxodihydro-2H-furo[3,2-b]pyrrol-4(5H,6H,6aH)-yl)-4,4-dimethyl-1-oxopentan-2-yl)-4-(1-propylpiperidin-4-yl)benzamide [Example 38] | 
19 |  | 100 | 1.46 | 5.1 | CCN1CCN(c2ccc(C(=O)N[C@@H](CC(C)(C)C)C(=O)N3C[C@H](OC)[C@H]4OCC(=O)[C@H]43)cc2)CC1 [Example 6, 4-(4-ethylpiperazin-1-yl)-N—((S)-1-((3aS,6S,6aS)-6-methoxy-3-oxodihydro-2H-furo[3,2-b]pyrrol-4(5H,6H,6aH)-yl)-4,4dimethyl-1-oxopentan-2-yl)benzamide] | logD at 1 h (LogD determinations): > 0.8
20 |  | 96 | 0.01 | 3.5 | COCCN1CCN(c2ccc(C(=O)N[C@@H](CC(C)C)C(=O)N3C[C@@H](N)[C@H]4OCC(=O)[C@H]43)cc2)CC1 [Example 24, N—((S)-1-((3aS,6R,6aR)-6-amino-3-oxodihydro-2H-furo[3,2-b]pyrrol-4(5H,6H,6aH)-yl)-4-methyl-1-oxopentan-2-yl)-4-(4-(2-methoxyethyl)piperazin-1-yl)benzamide] | logD at 1 h (LogD determinations): 0.01 to 0.76
21 | > 4000 |  |  |  | N—((S)-1-((3aS,6R,6aS)-6-methoxy-3-oxodihydro-2H-furo[3,2-b]pyrrol-4(5H,6H,6aH)-yl)-4-methyl-1-oxopentan-2-yl)-4-(4-methylpiperazin-1-yl)benzamide [Example 3] | 
